For 8 compounds, melting point and IC50 results are on record in patent US20100197668A1, “1,2,3,4-TETRAHYDROPYRROLO[1,2-A]PYRAZINE-6-CARBOXAMIDE AND 2,3,4,5-TETRAHYDROPYRROLO[1,2-a][1,4]-DIAZEPINE-7-CARBOXAMIDE DERIVATIVES, PREPARATION AND THERAPEUTIC USE THEREOF” (SANOFI-AVENTIS, priority 2007, published 2010).

Structures can show the parent of a compound that is named as a salt.

Series [1] has as its target T1, purified recombinant form of human BACE1 aspartyl protease (Homo sapiens, UniProt P56817).
T1 construct: hexahistidine (C); made in house; host or cells: Drosophila cells
Put plainly: in vitro inhibition of β-secretase (BACE1) activity, cleavage of fluorogenic peptide substrate FS1 (FRET). The format is biochemical. Particulars: recombinant human BACE1 10 nM, substrate FS1 5 μM, sodium acetate buffer pH 4.5, 37° C., 45 minutes; read-out: IC50 (concentration of product giving 50% inhibition of the enzyme activity). An excerpt: The compounds according to the invention have been the subject of pharmacological tests enabling their inhibitory effect with respect to β-secretase activity to be determined.
The tests consisted in measuring the in vitro inhibition of the β-secretase activity by the compounds of the invention.
The β-secretase activity measured corresponds to that of a purified recombinant form of human BACE1 aspartyl protease (the latter comprising a hexahistidine tag at the C-terminal position) produced by expression in Drosophila cells. The purified enzyme is conditioned in TRIS buffer (18 mM) at pH 7.5 containing NaCl (0.45M), MnCl2 (0.9 mM), CaCl2 (0.9 mM), α-D-methylmannoside and 10% glycerol, and stored at −80° C. until use.
The BACE1 activity is measured from the cleavage of a fluorogenic peptide substrate, known as FS1, described originally by Ermolieff et Coll. (2000, Biochemistry, 39, 12450-12456), and based on the principle of fluorescence resonance energy transfer (FRET); the cleavage of the FS1 peptide is measured from the increase of the fluorescent signal emitted by the EDANS (or 5-[(2-aminoethyl)amino]-naphthalene-2-sulfonic acid) group.
The test is carried out in a 96-well microplate in order to determine the inhibition of the enzyme activity by the products of the invention. The substrate FS1 is solubilized to a concentration of 1 mM in 100% dimethylsulfoxide (DMSO) and stored at −20° C. until use. The dilutions of the products to be tested are prepared in DMSO starting from a 10 mM stock solution. The products of the invention, at final concentrations of 0.003 to 10 μM are incubated at 37° C. with the substrate FS1 (final concentration of 5 μM) and the purified enzyme (final concentration of 10 nM) in the sodium acetate buffer (0.1 M), pH 4.5 containing 0.02% of CHAPS detergent and […] for 45 minutes. […] When the incubation is finished, the fluorescence is measured in a spectrofluorimeter, at the excitation wavelength of 355 nm and emission wavelength of 509 nm. For each product concentration tested, the fluorescent signal is compared to the maximum signal obtained when the substrate FS1 is only incubated with the enzyme.
The inhibitory activity of the products of the invention is then evaluated by the measurement of the IC50 (concentration of product giving 50% inhibition of the enzyme activity) using a non-linear regression analysis (computer application software XLfit, IDBS™).

T1 sequence (P56817 46-501): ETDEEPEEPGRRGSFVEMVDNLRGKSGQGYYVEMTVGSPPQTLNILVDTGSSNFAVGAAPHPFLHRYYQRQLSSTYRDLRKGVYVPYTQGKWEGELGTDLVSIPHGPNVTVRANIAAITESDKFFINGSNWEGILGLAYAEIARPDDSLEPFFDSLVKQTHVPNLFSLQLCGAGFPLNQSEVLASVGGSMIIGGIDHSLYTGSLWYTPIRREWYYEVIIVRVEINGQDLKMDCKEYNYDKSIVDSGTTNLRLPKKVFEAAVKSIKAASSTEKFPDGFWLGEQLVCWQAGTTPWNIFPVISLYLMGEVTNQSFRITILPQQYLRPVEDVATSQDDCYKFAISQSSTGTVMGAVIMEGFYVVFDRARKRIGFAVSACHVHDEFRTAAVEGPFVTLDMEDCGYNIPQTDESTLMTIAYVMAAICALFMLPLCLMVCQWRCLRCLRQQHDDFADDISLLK

Turning to `CCCC(CCC)N1CCn2c(C(=O)N[C@@H](Cc3ccccc3)[C@H](O)CNC3(c4cccc(C(F)(F)F)c4)CC3)ccc2C1=O.Cl`, the melting point (as a rule, the temperature, or range, at which the solid turns liquid) was 176 °C.

For `CCN(CC)C(=O)c1cc(C(=O)N[C@@H](Cc2ccccc2)[C@H](O)CNC2(c3cccc(C(F)(F)F)c3)CC2)n2c1CNCC2` (as salt: HCl) [Compound 5, 6-{(1S,2R)-1-benzyl-2-hydroxy-3-[1-(3-trifluoromethylphenyl)cyclopropylamino]propyl}-N-8,N-8-diethyl-1,2,3,4-tetrahydropyrrolo[1,2-a]pyrazine-6,8-dicarboxamide], the melting point is 143 °C.

In turn, `COC(=O)c1cc(C(=O)N[C@@H](Cc2ccccc2)[C@H](O)CNC2(c3cccc(C(F)(F)F)c3)CC2)n2c1CN(C(=O)OC(C)(C)C)CC2` [Compound 1, 2-tert-Butyl 8-methyl 6-{[(1S,2R)-1-benzyl-2-hydroxy-3-({1-[3-(trifluoromethyl)phenyl]cyclopropyl}amino)propyl]carbamoyl}-3,4-dihydropyrrolo[1,2-a]pyrazine-2,8(1H)-dicarboxylate] gave a melting point of 136 °C.

Turning to `CC(C)(C)OC(=O)N1CCn2c(C(=O)N[C@@H](Cc3ccccc3)[C@H](O)CNC3(c4cccc(C(F)(F)F)c4)CC3)cc(C(=O)O)c2C1` [Compound 2, 6-{[(1S,2R)-1-Benzyl-2-hydroxy-3-({1-[3-(trifluoromethyl)phenyl]cyclopropyl}amino)propyl]carbamoyl}-2-(tert-butoxycarbonyl)-1,2,3,4-tetrahydropyrrolo[1,2-a]pyrazine-8-carboxylic acid], the melting point amounted to 134.5 °C.

Regarding `CCN(CC)C(=O)c1cc(C(=O)N[C@@H](Cc2ccccc2)[C@H](O)CNC2(c3cccc(C(F)(F)F)c3)CC2)n2c1CNCC2` [Compound 5, 6-{(1S,2R)-1-benzyl-2-hydroxy-3-[1-(3-trifluoromethylphenyl)cyclopropylamino]propyl}-N-8,N-8-diethyl-1,2,3,4-tetrahydropyrrolo[1,2-a]pyrazine-6,8-dicarboxamide], the IC50 in series [1] turned out to be 310 nM.

With `CCCC(CCC)N1CCn2c(C(=O)N[C@@H](Cc3cc(F)cc(F)c3)[C@H](O)CNC3(c4cccc(C(F)(F)F)c4)CC3)ccc2C1=O.Cl` [Compound 7, N-[(1S,2R)-1-(3,5-Difluorobenzyl)-2-hydroxy-3-({1-[3-(trifluoromethyl)-phenyl]cyclopropyl}amino)propyl]-1-oxo-2-(1-propylbutyl)-1,2,3,4-tetrahydropyrrolo[1,2-a]pyrazine-6-carboxamide hydrochloride (1:1)], the melting point amounted to 183 °C. Further, the IC50 in series [1] worked out at 480 nM.

Regarding `CCCC(CCC)N1CCn2c(C(=O)N[C@@H](Cc3ccccc3)[C@H](O)CNCc3cccc(C(F)(F)F)c3)ccc2C1=O.Cl` [Compound 9, N-[(1S,2R)-1-Benzyl-2-hydroxy-3-{[3-(trifluoromethyl)benzyl]amino}propyl]-1-oxo-2-(1-propylbutyl)-1,2,3,4-tetrahydropyrrolo[1,2-a]pyrazine-6-carboxamide hydrochloride (1:1)], the melting point amounted to 168 °C. Moreover, in series [1], the IC50 came to 370 nM.

As for `CCCC(CCC)N1CCCn2c(C(=O)N[C@@H](Cc3ccccc3)[C@H](O)CNCc3cccc(C(F)(F)F)c3)ccc2C1=O` [Compound 11, N-[(1S,2R)-1-Benzyl-2-hydroxy-3-{[3-(trifluoromethyl)benzyl]amino}propyl]-1-oxo-2-(1-propylbutyl)-2,3,4,5-tetrahydro-1H-pyrrolo[1,2-a][1,4]diazepine-7-carboxamide hydrochloride (1:1)], the IC50 in series [1] came to 1400 nM.
